What all share (assay): cup-plate agar diffusion antimicrobial activity
Assay type in all cases: cell-based

One experiment concerns Bacillus subtilis. The source says:
(§1) Antibacterial activity of the synthesized compound has been tested using Gram-negative strains such as Escherichia coli, Salmonella enteric, Pseudomonas aeruginosa, and Pseudomonas putida; and Gram-positive strains such as Staphylococcus aureus, Staphylococcus epidermidis, Bacillus subtilis, and Micrococcus luteus. Additionally, antifungal activity has been tested using different Candida strains such as Candida albicans, Candida glabrata, and Candida krusei.
(§2) The present compound 3-(1-(3-(Dimethylamino)propyl)-4,5-diphenyl-1H-imidazol-2-yl)pyridin-2-ol was dissolved in DMF followed by dilution in buffer to obtain final concentrations of 60,000, 30,000 and 15,000 ppm. The final concentration of DMF was less than 2% in the final buffer solutions.
(§3) Negative control was performed using DMF diluted to similar final concentrations of compound solutions. Ampicillin and Geneticin were used as positive controls with similar dilutions and final concentrations.
(§4) Using the cup-plate agar diffusion method, a definite volume of the microbial suspension (inoculums) was mixed with sterilized agar media. Plates were prepared and left to solidify and then wells were prepared using a sterile cork borer. The wells were filled with an equal volume of a solution of synthesized compounds and standard drugs. The plates were incubated for a definite time under specified conditions. The zones of inhibition were measured in cm as a parameter of antimicrobial activity.
(§5) The tested antimicrobial activity of the 3-(1-(3-(Dimethylamino)propyl)-4,5-diphenyl-1H-imidazol-2-yl)pyridin-2-ol, as compared to ampicillin, can be seen in Table 1, below, with zones of inhibition measured in cm.

A further experiment relates to Escherichia coli.
From the text: as §1, §2, §3, §4, §5

In the next experiment the test system is Micrococcus luteus.
From the text: as §1, §2, §3, §4, §5

In a further experiment the test system is Pseudomonas aeruginosa.
From the text: as §1, §2, §3, §4, §5

The next experiment has as its system Pseudomonas putida.
From the text: as §1, §2, §3, §4, §5

Another experiment has as its system Salmonella enterica.
From the text: as §1, §2, §3, §4, §5

For a further experiment, the system named is Staphylococcus aureus.
From the text: as §1, §2, §3, §4, §5

For experiment [1], the system named is Staphylococcus epidermidis.
From the text: as §1, §2, §3, §4, §5

For `CN(C)CCCn1c(-c2cccnc2O)nc(-c2ccccc2)c1-c1ccccc1` [3-(1-(3-(Dimethylamino)propyl)-4,5-diphenyl-1H-imidazol-2-yl)pyridin-2-ol], the zones of inhibition with Bacillus subtilis (concentration 15) is reported as 1.1 cm; with Bacillus subtilis (concentration 30), 1.5 cm; in the experiment on Bacillus subtilis (concentration 60) it was 2.7 cm; in the experiment on Escherichia coli (concentration 15), 0.6 cm; in the experiment on Escherichia coli (concentration 30), 0.9 cm; in the experiment on Escherichia coli (concentration 60) it was 1.00 cm. The zones of inhibition in the experiment on Micrococcus luteus (concentration 15) amounted to 1.2 cm; with Micrococcus luteus (concentration 30), 2.4 cm; with Micrococcus luteus (concentration 60), 3.2 cm; with Pseudomonas aeruginosa (concentration 15), 0.6 cm; in the experiment on Pseudomonas aeruginosa (concentration 30), 0.7 cm; in the experiment with Pseudomonas aeruginosa (concentration 60), 1.1 cm. For the same compound, the zones of inhibition in the experiment on Pseudomonas putida (concentration 15) was 0.1 cm; in the experiment on Pseudomonas putida (concentration 30) it was 0.5 cm; in the experiment on Pseudomonas putida (concentration 60), 1.1 cm; with Salmonella enterica (concentration 15), 0.7 cm; in the experiment on Salmonella enterica (concentration 30), 1.0 cm; in the experiment with Salmonella enterica (concentration 60), 1.7 cm. In addition, the zones of inhibition with Staphylococcus aureus (concentration 15) worked out at 2.0 cm; with Staphylococcus aureus (concentration 30), 2.9 cm; in the experiment on Staphylococcus aureus (concentration 60), 3.9 cm; in experiment [1] (concentration 15), 2.1 cm; in experiment [1] (concentration 30), 3.0 cm; in experiment [1] (concentration 60) it was 3.3 cm.
Take `CC1(C)S[C@@H]2[C@H](NC(=O)[C@H](N)c3ccccc3)C(=O)N2[C@H]1C(=O)O` [Ampicillin]: the zones of inhibition with Bacillus subtilis (concentration 15) is 1.2 cm; with Bacillus subtilis (concentration 30), 1.9 cm; in the experiment with Bacillus subtilis (concentration 60), 2.3 cm; with Escherichia coli (concentration 15), 0.4 cm; with Escherichia coli (concentration 30) it was 0.8 cm; with Escherichia coli (concentration 60), 1.2 cm. For the same compound, the zones of inhibition amounted to 1.8 cm in the experiment with Micrococcus luteus (concentration 15); 2.8 cm in the experiment on Micrococcus luteus (concentration 30); 3.6 cm in the experiment on Micrococcus luteus (concentration 60); 0.4 cm with Pseudomonas aeruginosa (concentration 15); 0.8 cm with Pseudomonas aeruginosa (concentration 30); 1.2 cm in the experiment with Pseudomonas aeruginosa (concentration 60). Moreover, the zones of inhibition in the experiment with Pseudomonas putida (concentration 15) came to 0.3 cm; in the experiment with Pseudomonas putida (concentration 30), 0.6 cm; in the experiment with Pseudomonas putida (concentration 60), 1.0 cm; with Salmonella enterica (concentration 15) it was 0.9 cm; in the experiment on Salmonella enterica (concentration 30), 1.3 cm; in the experiment on Salmonella enterica (concentration 60) it was 1.6 cm. The zones of inhibition with Staphylococcus aureus (concentration 15) came to 2.9 cm; in the experiment with Staphylococcus aureus (concentration 30), 3.5 cm; in the experiment with Staphylococcus aureus (concentration 60), 4.0 cm; in experiment [1] (concentration 15), 2.5 cm; in experiment [1] (concentration 30) it was 3.0 cm; in experiment [1] (concentration 60), 3.5 cm.

The values are drawn from US12178802B1, “3-(1-(3-(dimethylamino)propyl)-4,5-diphenyl-1H-imidazol-2-yl)pyridin-2-ol as an antitumor and antimicrobial compound” (KING FAISAL UNIVERSITY, priority 2023, dated 2024).
